Data as given in patent publication US20220281902A1, “MIT[…] IMPROVE METABOLIC SYNDROME DURING AGING” (The Board of Trustees of the Leland Stanford Junior …, priority 2019, published 2022).

Columns and labels:
[1] = Stability of compound in drinking water; type: physicochemical; details: drinking water pH=7-7.4, room temperature, 20-30 days
Excerpt: Previously, the inventors developed series of derivatives of the tetrazole, thiazole, and 1,2,3-triazole families that were thought to be reversible inhibitors of the cytochrome c oxidase (CcO) model and characterized as possible moderate inhibitors of mitochondrial respiration (Barile et al. (2012), Proceedings of the National Academy of Sciences of the United States of America, 109:7, pp. 2539-2543). In this research, a triphenyl phosphonium thiazole derivative (referred to herein as HG1a-1) was randomly selected. Overall, no mice died due to oral administration of compound during 18-20 months. […]
(§1) The C57BL/6 mice were maintained on a standard purified mouse diet (PicoLab 5053 Rodent Diet 20; Lab Diets) until they reached 2 months of age when the treatments started. […] Body weights were measured weekly at the same time each week. Food and water intake were measured once every month for 3-6 consecutive days at the same time each month. Water consumption was measured for 2 weeks prior to the start of administration. Compound was generated and modified for better permeability in to mitochondria, evaluated by HPLC, was 96%-97%. […] Aliquots were collected from each batch and measured by HPLC to confirm stability of the compound. […] Rectal body temperature was measured monthly, as described previously. Whole blood samples, and histopathology were analyzed after 14 months of treatment. […]

[2] = Long-term oral administration in drinking water, tolerability; type: in vivo, C57BL/6 mice
Experimental: (§2) Animal experimentation. Male C57BL/6 mice (Shanghai SLAC Laboratory animal Co. Ltd) were group-housed in a barrier facility with 12-hr light/12-hr dark cycles. All mice received a regular chow diet ad libitum (PicoLab 5053 Rodent Diet 20; Lab Diets) except for HFD (40-60%) and CR models. The compound was then administered in drinking water ad libitum at either 90-100 or 100-120 mg/kg/day, based on the previously measured water consumption.
as §1

[3] = system: PGC-1α, NRF1, SIRT1, Atg5, PINK1, Parkin transcripts; test: qPCR of mitochondriogenesis transcripts and mitophagy markers; type: in vivo, mouse
Experimental: (§3) Gene expression & RT qPCR Analyses. Total RNA was isolated using a commercially available kit (OMEGA bio-tek, R6812-02) according to the manufacturer's instructions. cDNA was generated using the PrimeScript RT reagent kit (TAKARA, RR047A). Gene expression were determined by qPCR as described in the product manual. The analysis was evaluated by Bio-Rad Real-Time System (CFX Connect™).
(§4) RNAs from 10 mice (5 treated and 5 Ctrl.) VF fat or livers were isolated by using omega Bio-Tek reagents, and cDNA was transcribed by (TAKARA). qPCR was then performed by using iQ SYBR Green mastermix bioscience on a CFX96 Real-Time System/C1000 Thermal Cycler (Bio-Rad).

[4] = Body weight variations on chow diet; type: in vivo, C57BL/6 mice; details: for body weight lighter than controls: male mice
Experimental: as §2, with “Male C57BL/6 mice (Shanghai SLAC Laboratory animal Co.” left out
The C57BL/6 mice were maintained on a standard purified mouse diet (PicoLab 5053 Rodent Diet 20; Lab Diets) until they reached 2 months of age when the treatments started. The CR animals were subjected to a lifelong restriction on PicoLab 5053 Rodent Diet 20; Lab Diets, starting at 12 weeks of age, with a daily food allotment of 60% of that eaten by the ad lib animals. Besides CR animals, the C57BL/6 groups in this study were fed the standard high fat diet (HFD; 60 or 40% fat). Body weights were measured weekly at the same time each week. Food and water intake were measured once every month for 3-6 consecutive days at the same time each month. Water consumption was measured for 2 weeks prior to the start of administration. Compound was generated and modified for better permeability in to mitochondria, evaluated by HPLC, was 96%-97%. The administration began at 8 weeks of age and continued for 16 months, until they became 18-month-old. The drug solution was prepared weekly in small batches by dissolving the compound into autoclaved water at the respective doses and filtering sterilely. Aliquots were collected from each batch and measured by HPLC to confirm stability of the compound. Water bottles and cages were changed twice weekly. Fed and fasted blood samples were collected monthly at the same time each month from tail and used for glucose, insulin, blood cell counts, lipid analysis using assay kits (Robio, China) and HbA1C assay kit (Crystal chem, USA) following the manufacturer protocol. IPGTTs and ITTs were conducted throughout morning and early afternoon after fasting for 16-18 hrs. and 4 hrs., respectively, once before start of treatment administration began and every 3 months thereafter. Rectal body temperature was measured monthly, as described previously. Whole blood samples, and histopathology were analyzed after 14 months of treatment. Tissue samples were collected after 10-14 months from mice, sacrificed and used for WB and qPCR microarray, and other analyses. All animal studies were approved by the Shanghai Jiao Tong University Animal Studies Committee and were in accordance with NIH guidelines. (Number of mice; SD=30, HFD=10, CR=20).

visceral fat adipocytes = test: Histological analysis of white adipocyte size in visceral fat (toluidine blue O); type: in vivo, mouse
Experimental: Fluorescent microscopy. Adipose tissue was harvested and fixed in 4% paraformaldehyde (SigmaP6148). Adipocyte size was measured by staining for toluidine blue O in 5-20 μm-thick sections, paraffin embedded (Cell Signalling Technology, Tissue-Tek O.C.T.). adipocyte differentiations assessed by Oil Red 0 staining.

p16, p21 transcripts = test: qPCR of DNA damage and WAT senescence markers; type: in vivo, mouse; details: WAT, after 14 months treatment
Experimental: as §3, §4

[5] = Chronic 10-week treatment of T2DM mice; type: in vivo
Experimental: Next, in a biased investigation on impact of partial inhibition as a potential anti-diabetic treatment, two groups of type 2 diabetes mellitus (T2DM) and healthy control mice were prepared. Four weeks after the verification of T2DM, diabetic mice began to receive the exemplary subject compound. The chronic treatment phase lasted for 10 weeks.

[6] = Single IP injection, body temperature and clinical pathology; type: in vivo, C57BL/6 mice; details: Day 4
Experimental: Body temperature integration in mouse. Three groups of male C57BL/6 mice received a single injection of the inhibitor at dose-levels of 0 (vehicle=N/S), average μM and max μM and were then kept for an 80 minute observation period until the BT was stabilized. Treatment was performed as a slow injection, IP, under a dosage volume of 0.5 mL/kg.
Rectal temperature was measured using a conventional thermometer in all groups at 0, 10, 15, 20, 30, 40, 50, 60, 70 and 80 minutes and repeated three times in 3 days.

[7] = liver, 12- and 16-month chronic treatment

Cc1ncsc1CCOC(=O)C[P+](c1ccccc1)(c1ccccc1)c1ccccc1.[Br-] [HG1a-1, (2-(2-(4-Methylthiazol-5-yl)Ethoxy)-2-Oxoethyl) Triphenylphosphonium Bromide]
compound maintained intact in drinking water [1]: 95%-99 | tolerability of long-term regulated mitochondrial inhibition ([2]; 18 month long treatment): well-tolerated without any deleterious effect | mortality due to oral administration ([2]; oral, 18-20 months): no mice died | Atg5 transcript level ([3]; adipose tissue): enhancement | Atg5 transcript level [3, 7]: noticeable upgrade | PINK1 transcript level [3, 7]: noticeable upgrade | Parkin transcript level [3, 7]: noticeable upgrade | SIRT1 transcript level ([3]; liver, longer course of treatment): significant enhancement | NRF1 transcript level ([3]; livers of aged mice): increased notably | PGC-1α transcript level ([3]; livers of aged mice): increased notably | body weight decrease vs controls ([4]; female mice, by 9 months): 26% | body weight less than controls ([4]; female mice, end of 5 months): 12% | body weight lighter than controls ([4]; after 14 months treatment): 25% | body weight lighter than controls ([4]; end of 5 months): 18% | visceral fat adipocyte size and cell perimeter (visceral fat adipocytes; 5 month old treated mice): minor changes | adipocyte shrinkage in size and perimeter compared to control (visceral fat adipocytes; 12 month old treated mice): 3 fold | p16 expression decline (p16, p21 transcripts): 10 fold | p21 expression (p16, p21 transcripts): remained unchanged | drop of blood glucose level ([5]; after one week (23 mM at time 0)): 20% | drop of blood glucose level ([5]; by week 3, reached healthy controls): 39% | insulin elevations ([5]; week 3): negligible | clinical pathology (physicals) 24 h after treatment [6]: within the normal baseline range
